Patent US7229635B2, “Pharmacotherapeutic process and composition for central nervous system disorders” (Indiana University Research and Technology Corporation, priority 2000, dated 2007)

Columns and labels:
rat hippocampal slices = assay: 50 mM [K+]-stimulated glutamate release from superfused hippocampal slices; assay type: cell-based; conditions: for glutamate at 10 min. post stimulation: control 4.37±1.29, p<0.05; for peak 50 mM [K+]-stimulated glutamate release: control 48.05±8.59, p<0.001
Experimental: Enhanced excitatory amino acid release is suspected in pathways associated with seizures and excitotoxicity. In this regard, superfused hippocampal slices were used to investigate whether TRH could inhibit glutamate release in vitro. Rat hippocampi were removed and sliced transversely (500/μm) under low magnification. Slices were weighed, washed in cold saline, transferred to individual tissue chambers floated in a 37°/C. water bath, and were equilibrated in oxygenated (95% O2/5% CO2) Kreb's buffer (KRB) at 37° C. for 120 min. (0.5 ml/min). Slice chambers were then superfused 10 min. with KRB (control), or KRB containing 10 μM, 1 μM, or 0.1 μM TRH, respectively, prior to 5 min. stimulation with modified KRB (50 mM [K^+]±TRH). Fractions (1 min.) were collected during the 5 min. stimulation and for an additional 10 min. (0.5 ml/min.) thereafter, and analyzed for glutamate by HPLC.

[1] = system: kindled seizures (amygdala); conditions: delivery of about 10^−6 to about 10^−12 M TRH to the brain; Example 3 and Chepournova et al.; cited from earlier work
Gαq/11 G-proteins = conditions: sustained TRH exposure to its receptor; cited from earlier work

NC(=O)[C@@H]1CCCN1C(=O)[C@H](Cc1cnc[nH]1)NC(=O)[C@@H]1CCC(=O)N1 [TRH, Thyrotropin-releasing hormone]
glutamate at 10 min. post stimulation (rat hippocampal slices; 0.1 μM TRH): 1.54±0.43 μMg/fraction | peak 50 mM [K+]-stimulated glutamate release (rat hippocampal slices; 0.1 μM TRH): 1.38±0.28 μMg/fraction | glutamate at 10 min. post stimulation (rat hippocampal slices; 1 μM TRH): 1.11±0.26 μMg/fraction | peak 50 mM [K+]-stimulated glutamate release (rat hippocampal slices; 1 μM TRH): 1.54±0.33 μMg/fraction | glutamate at 10 min. post stimulation (rat hippocampal slices; 10 μM TRH): 1.35±0.48 μMg/fraction | peak 50 mM [K+]-stimulated glutamate release (rat hippocampal slices; 10 μM TRH): 2.35±0.50 μMg/fraction | effect on glutamate release by 50 mM [K+] stimulation given 15 min. later (rat hippocampal slices; perfusion (5 min.) with KRB+10 μM TRH, FIG. 6): significantly (p<0.05) blocked glutamate release | effect in kindling studies [1]: anticonvulsant | reduction of Gαq/11 G-proteins (Gαq/11 G-proteins): 20-70%
